Counter-ions that a name gives are not always drawn.
What was measured:
[1] = molecular target: HCV NS3 protease genotype 3a (3A-1) (Hepatitis C virus genotype 3a, UniProt Q81258); assay: HCV NS3 protease time-resolved fluorescence (TRF) assay, genotype 3a; type: biochemical; settings: Ki 3a
Summary of the method: (§1)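 Time-resolved fluorescence, ex 340/em 615 nm, 400 μs delay; IC50 by four-parameter fit. Enzyme preincubated with compound 10 min, then TRF substrate 25 nM final added and reaction run 6 h at RT. Buffer HEPES pH 7.5 with NaCl, glycerol, Triton X-100, DTT, PEG 8000.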

[2] = molecular target: T1, HCV genotype 1b (BK) NS3 modified enzyme with a R155K mutation (Hepatitis C virus genotype 1b, UniProt P26663, R1181K); assay: HCV NS3 protease time-resolved fluorescence (TRF) assay, genotype 1b R155K; type: biochemical; settings: Ki 1b R155K
T1 construct: HCV genotype 1b (BK) NS3 modified enzyme
Summary of the method: as §1

[3] = first of two values printed in the cell (not explained)
[4] = second of two values printed in the cell (not explained)
[5] = genotype 1b (BK) NS3 R155K, single value

Compound	Ki [1] [nM]	Ki [2, 3] [nM]	Ki [2, 4] [nM]	Ki [2, 5] [nM]
C=C[C@@H]1C[C@]1(NC(=O)[C@@H]1C[C@@H]2CN1C(=O)[C@H](C1CCCCC1)NC(=O)O[C@@H]1C[C@H]1CCCCCc1c(nc3ccccc3c1OC1CCN(CC)CC1)O2)C(=O)NS(=O)(=O)C1(C)CC1 [Example 239, 4-{[(1aR,5S,8S,10R,22aR)-5-cyclohexyl-8-{[(1R,2S)-2-ethenyl-1-{[(1-methylcyclopropyl)sulfonyl]carbamoyl}cyclopropyl]carbamoyl}-3,6-dioxo-1,1a,3,4,5,6,9,10,18,19,20,21,22,22a-tetradecahydro-8H-7,10-methanocyclopropa[18,19][1,10,3,6]dioxadiazacyclononadecino[11,12-b]quinolin-17-yl]oxy}-1-ethylpiperidinium formate]	0.278	0.016	0.064	
C=C[C@@H]1C[C@]1(NC(=O)[C@@H]1C[C@@H]2CN1C(=O)[C@H](C(C)(C)C)NC(=O)O[C@@H]1C[C@H]1CCCCCc1c(nc3ccccc3c1OCCCN(C)C)O2)C(=O)NS(=O)(=O)C1(C)CC1 [Example 114, (1aR,5S,8S,10R,22aR)-5-tert-butyl-17-[3-(dimethylamino)propoxy]-N-[(1R,2S)-2-ethenyl-1-{[(1-methylcyclopropyl)sulfonyl]carbamoyl}cyclopropyl]-3,6-dioxo-1,1a,3,4,5,6,9,10,18,19,20,21,22,22a-tetradecahydro-8H-7,10-methanocyclo propa[18,19][1,10,3,6]dioxadiazacyclo-nonadecino[11,12-b] quinoline-8-carboxamide]	0.25			0.051
C=C[C@@H]1C[C@]1(NC(=O)[C@@H]1C[C@@H]2CN1C(=O)[C@H](C1CCCCC1)NC(=O)O[C@@H]1C[C@H]1CCCCCc1c(nc3ccccc3c1OC1CCN(CC3CC3)CC1)O2)C(=O)NS(=O)(=O)C1(C)CC1 [Example 238, 4-{[(1aR,5S,8S,10R,22aR)-5-cyclohexyl-8-{[(1R,2S)-2-ethenyl-1-{[(1-methylcyclopropyl)sulfonyl]carbamoyl}cyclopropyl]carbamoyl}-3,6-dioxo-1,1a,3,4,5,6,9,10,18,19,20,21,22,22a-tetradecahydro-8H-7,10-methanocyclopropa[18,19][1,10,3,6]dioxadiazacyclononadecino[11,12-b]quinolin-17-yl]oxy}-1-(cyclopropylmethyl)piperidinium formate]	0.9	0.031	0.047	
C=C[C@@H]1C[C@]1(NC(=O)[C@@H]1C[C@@H]2CN1C(=O)[C@H](C1CCCCC1)NC(=O)O[C@@H]1C[C@H]1CCCCCc1c(nc3ccccc3c1OCCCNC1CCC1)O2)C(=O)NS(=O)(=O)C1(C)CC1 [Example 242, N-(3-{[(1aR,5S,8S,10R,22aR)-5-cyclohexyl-8-{[(1R,2S)-2-ethenyl-1-{[(1-methylcyclopropyl)sulfonyl]carbamoyl}cyclopropyl]carbamoyl}-3,6-dioxo-1,1a,3,4,5,6,9,10,18,19,20,21,22,22a-tetradecahydro-8H-7,10-methanocyclopropa[18,19][1,10,3,6]dioxadiazacyclononadecino[11,12-b]quinolin-17-yl]oxy}propyl)cyclobutanaminium formate]	0.935	0.013	0.072	
C=C[C@@H]1C[C@]1(NC(=O)[C@@H]1C[C@@H]2CN1C(=O)[C@H](C(C)(C)C)NC(=O)O[C@@H]1CCC[C@H]1CCCCCc1c(nc3ccccc3c1OCCN1CCOCC1)O2)C(=O)NS(=O)(=O)C1(C(C)(C)O)CC1 [Example 108, (3aR,7S,10S,12R,24aR)-7-tert-butyl-N-[(1R,2S)-2-ethenyl-1-({[1-(2-hydroxypropan-2-yl)cyclopropyl]sulfonyl}carbamoyl)cyclopropyl]-19-[2-(morpholin-4-yl)ethoxy]-5,8-dioxo-1,2,3,3a,5,6,7,8,11, 12,20,21,22,23,24,24a-hexadeca hydro-10H-9,12-methanocyclopenta [18,19][1,10,3,6]dioxadiaza-cyclononadecino [11,12-b]quinoline-10-carboxamide]	23			0.93
C=C[C@@H]1C[C@]1(NC(=O)[C@@H]1C[C@@H]2CN1C(=O)[C@H](C(C)(C)C)NC(=O)O[C@@H]1C[C@H]1CCCCCc1c(nc3ccccc3c1OCCCN(C)Cc1ncc(C)[nH]1)O2)C(=O)NS(=O)(=O)C1(C)CC1 [Example 201, (1aR,5S,8S,10R,22aR)-5-tert-butyl-N-[(1R,2S)-2-ethenyl-1-{[(1-methylcyclopropyl)sulfonyl]carbamoyl}cyclopropyl]-17-(3-{methyl[(5-methyl1H-imidazol-2-yl)methyl]amino}proopoxy)-3,6-dioxo-1,1a,3,4,5,6,9,10,18,19,20,21,22,22a-tetradecahydro-8H-7,10-methanocyclopropa[18,19][1,10,3,6] dioxadiazacyclononadecino[11,12-b] quinoline-8-carboxamide]	1.3			0.079
C=C[C@@H]1C[C@]1(NC(=O)[C@@H]1C[C@@H]2CN1C(=O)[C@H](C(C)(C)C)NC(=O)O[C@@H]1C[C@H]1CCCCCc1c(nc3ccccc3c1OCCCN1CC(C#N)C1)O2)C(=O)NS(=O)(=O)C1(C)CC1 [Example 184, (1aR,5S,8S,10R,22aR)-5-tert-butyl-17-[3-(3-cyanoazetidin-1-yl)propoxy]-N-[(1R,2S)-2-ethenyl-1-{[(1-methylcyclopropyl)sulfonyl]carbamoyl}cyclopropyl]-3,6-dioxo-1,1a,3,4,5,6,9,10, 18,19,20,21,22,22a-tetradecahydro-8H-7,10-methanocyclopropa[18,19][1,10,3,6] dioxadiazacyclononadecino[11,12-b] quinoline-8-carboxamide]	1.1			0.057
C=C[C@@H]1C[C@]1(NC(=O)[C@@H]1C[C@@H]2CN1C(=O)[C@H](C(C)(C)C)NC(=O)O[C@@H]1C[C@H]1CCCCCc1c(nc3ccccc3c1OCCCNCCCCc1ccccc1)O2)C(=O)NS(=O)(=O)C1(C)CC1 [Example 198, (1aR,5S,8S,10R,22aR)-5-tert-butyl-N-[(1R,2S)-2-ethenyl-1-{[(1-methylcyclopropyl)sulfonyl]carbamoyl}cylcopropoyl]-3,6-dioxo-17-{3-[(4-phenylbutyl)amino]propoxy}-1,1a,3,4,5,6,9,10,18,19,20,21,22,22a-tetra decahydro-8H-7,10-methanocyclopropa[18,19][1,10,3,6] dioxadiazacyclononadecino[11,12-b] quinoline-8-carboxamide]	0.77			0.05
C=C[C@@H]1C[C@]1(NC(=O)[C@@H]1C[C@@H]2CN1C(=O)[C@H](C1(C)CCCCC1)NC(=O)O[C@@H]1C[C@H]1CCCCCc1c(nc3ccccc3c1OC1CCN(C(=O)OC(C)(C)C)CC1)O2)C(=O)NS(=O)(=O)C1(C)CC1 [Example 267, tert-butyl 4-{[(1aR,5S,8S,10R,22aR)-8-{[(1R,2S)-2-ethenyl-1-{[(1-methylcyclopropyl)sulfonyl]carbamoyl}cyclopropyl]carbamoyl}-5-(1-methylcyclohexyl)-3,6-dioxo-1,1a,3,4,5,6,9,10,18,19,20,21,22,22a-tetradecahydro-8H-7,10-methanocyclopropa[18,19][1,10,3,6]dioxadiazacyclononadecino[11,12-b]quinolin-17-yl]oxy}piperidine-1-carboxylate]	56	0.114	4.6	
C=C[C@@H]1C[C@]1(NC(=O)[C@@H]1C[C@@H]2CN1C(=O)[C@H](C(C)(C)C)NC(=O)O[C@@H]1C[C@H]1CCCCCc1c(nc3ccccc3c1OC1CC3CCC(C1)N3CC)O2)C(=O)NS(=O)(=O)C1(C)CC1 (single isomer, unassigned) [Example 281]	1.25	0.016	0.125	
